Data as given in PubChem BioAssay AID256 (DTP/NCI, 2004).
Several values for one entry are separate records, joined by “and”; a condition that tells them apart may be missing. Equal entries are not always repeated. Toxic doses and inconclusive results are not listed.

Test system: CD2F1 mice, L1210 leukemia ip, survival T/C
Assay: NCI In Vivo Anticancer Drug Screen. Data for tumor model L1210 Leukemia (intraperitoneal) in CD2F1 (CDF1) mice
Conditions: higher = longer survival
How it was run: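 Activity against a transplanted murine tumor was judged by comparing the compound group with a vehicle group. The outcome in the treated animals was divided by that in the controls.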

[1] = endpoint: mean survival time, dose: 100.0 mg/kg/injection, schedule: Q04DX003 (ip), vehicle: saline with Tween-80
[2] = endpoint: mean survival time, dose: 200.0 mg/kg/injection, schedule: Q04DX003 (ip), vehicle: saline with Tween-80
[3] = endpoint: mean survival time, dose: 400.0 mg/kg/injection, schedule: Q04DX003 (ip), vehicle: saline with Tween-80
[4] = endpoint: mean survival time, dose: 100.0 mg/kg/injection, schedule: Q01DX001 (ip), vehicle: saline with Tween-80
[5] = endpoint: mean survival time, dose: 200.0 mg/kg/injection, schedule: Q01DX001 (ip), vehicle: saline with Tween-80
[6] = endpoint: mean survival time, dose: 50.0 mg/kg/injection, schedule: Q01DX009 (ip), vehicle: saline with Tween-80
[7] = endpoint: mean survival time, dose: 100.0 mg/kg/injection, schedule: Q01DX009 (ip), vehicle: saline with Tween-80
[8] = endpoint: mean survival time, dose: 200.0 mg/kg/injection, schedule: Q01DX009 (ip), vehicle: saline with Tween-80
[9] = endpoint: mean survival time, dose: 100.0 mg/kg/injection, schedule: Q04DX003 (ip), vehicle: saline
[10] = endpoint: mean survival time, dose: 200.0 mg/kg/injection, schedule: Q04DX003 (ip), vehicle: saline
[11] = endpoint: mean survival time, dose: 100.0 mg/kg/injection, schedule: Q01DX001 (ip), vehicle: saline
[12] = endpoint: mean survival time, dose: 200.0 mg/kg/injection, schedule: Q01DX001 (ip), vehicle: saline
[13] = endpoint: mean survival time, dose: 400.0 mg/kg/injection, schedule: Q01DX009 (ip), vehicle: saline with Tween-80
[14] = endpoint: mean survival time, dose: 400.0 mg/kg/injection, schedule: Q01DX001 (ip), vehicle: saline with Tween-80
[15] = endpoint: mean survival time, dose: 100.0 mg/kg/injection, schedule: Q04DX002 (ip), vehicle: saline with Tween-80

With `CN(C)c1ccc(Cc2cc(O)c3c(c2O)C(=O)c2ccccc2C3=O)cc1` the T/C (endpoint: mean survival time, dose: 100.0 mg/kg/injection, schedule: Q01DX009 (ip), vehicle: saline sonified) was 93 % of control, the T/C (endpoint: mean survival time, dose: 200.0 mg/kg/injection, schedule: Q01DX009 (ip), vehicle: saline sonified) was 100 % of control and the T/C (endpoint: mean survival time, dose: 400.0 mg/kg/injection, schedule: Q01DX009 (ip), vehicle: saline sonified) was 96 % of control.

In the case of `C=C(Br)CNC(=O)C(F)(F)F`, the T/C (endpoint: mean survival time, dose: 6.25 mg/kg/injection, schedule: Q01DX009 (ip), vehicle: saline) is reported as 100 % of control, the T/C (endpoint: mean survival time, dose: 6.25 mg/kg/injection, schedule: Q04DX003 (ip), vehicle: saline) is reported as 96 % of control and the T/C (endpoint: mean survival time, dose: 12.5 mg/kg/injection, schedule: Q01DX009 (ip), vehicle: saline) is reported as 102 % of control. For the same compound, the T/C (endpoint: mean survival time, dose: 12.5 mg/kg/injection, schedule: Q04DX003 (ip), vehicle: saline) was 98 % of control, the T/C (endpoint: mean survival time, dose: 25.0 mg/kg/injection, schedule: Q01DX009 (ip), vehicle: saline) was 108 % of control and the T/C (endpoint: mean survival time, dose: 25.0 mg/kg/injection, schedule: Q04DX003 (ip), vehicle: saline) was 93 % of control.

With `O=C(CCCCCNC(=O)OCc1ccccc1)Oc1ccc([N+](=O)[O-])cc1` the T/C [1] was 101 % of control, the T/C [2] was 96 % of control and the T/C [3] was 94 % of control.

`O=C1NC(=O)C(CCCCO)N1` (stereo not given) was tested, and the T/C [4] was 101 % of control, the T/C [5] was 106 % of control and the T/C (endpoint: mean survival time, dose: 300.0 mg/kg/injection, schedule: Q01DX001 (ip), vehicle: saline with Tween-80) was 98 % of control.

With `NCC(F)(F)C(F)(F)C(F)(F)CN` the T/C [6] was 98 % of control, the T/C [7] was 107 % of control and the T/C [8] was 103 % of control.

For `CN(C)CCCNC/C=C\CNCCCN(C)C`, the T/C [9] was 101 % of control and the T/C [10] was 101 % of control.

In the case of `O=C(N/N=C/c1ccccc1)c1ccc(Cl)cc1Cl`, the T/C (endpoint: mean survival time, dose: 100.0 mg/kg/injection, schedule: Q01DX001 (ip), vehicle: Klucel (hydroxypropylcellulose) (HPC)) is reported as 100 % of control, the T/C (endpoint: mean survival time, dose: 100.0 mg/kg/injection, schedule: Q01DX009 (ip), vehicle: Klucel (hydroxypropylcellulose) (HPC)) is reported as 100 % of control and the T/C (endpoint: mean survival time, dose: 200.0 mg/kg/injection, schedule: Q01DX001 (ip), vehicle: Klucel (hydroxypropylcellulose) (HPC)) is reported as 97 % of control. For the same compound, the T/C (endpoint: mean survival time, dose: 200.0 mg/kg/injection, schedule: Q01DX009 (ip), vehicle: Klucel (hydroxypropylcellulose) (HPC)) was 94 % of control, the T/C (endpoint: mean survival time, dose: 400.0 mg/kg/injection, schedule: Q01DX001 (ip), vehicle: Klucel (hydroxypropylcellulose) (HPC)) was 101 % of control and the T/C (endpoint: mean survival time, dose: 400.0 mg/kg/injection, schedule: Q01DX009 (ip), vehicle: Klucel (hydroxypropylcellulose) (HPC)) was 91 % of control.

In the case of `CCO/N=C(\N)c1ccccc1`, the T/C [6] is reported as 106 % of control, the T/C [11] is reported as 111 % of control and the T/C [7] is reported as 98 % of control. For the same compound, the T/C [12] was 108 % of control, the T/C [8] was 100 % of control and the T/C (endpoint: mean survival time, dose: 400.0 mg/kg/injection, schedule: Q01DX001 (ip), vehicle: saline) was 104 % of control.

With `O=[N+]([O-])c1cc(S(=O)(=O)c2ccc(/C=C/c3ccc4c(c3)OCO4)c([N+](=O)[O-])c2)ccc1/C=C/c1ccc2c(c1)OCO2` the T/C [7] was 95 % of control, the T/C [8] was 88 % of control and the T/C [13] was 93 % of control.

In the case of `[C-]#[O+].[Cl][Sn]([Cl])[Cl].[Cl][Sn]([Cl])[Cl].[Pt].c1cnc2c(c1)ccc1cccnc12`, the T/C (endpoint: median survival time, dose: 3.12 mg/kg/injection, schedule: Q04DX003 (ip), vehicle: saline with Tween-80) is reported as 113 % of control, the T/C (endpoint: median survival time, dose: 6.25 mg/kg/injection, schedule: Q04DX003 (ip), vehicle: saline with Tween-80) is reported as 109 % of control and the T/C (endpoint: median survival time, dose: 12.5 mg/kg/injection, schedule: Q04DX003 (ip), vehicle: saline with Tween-80) is reported as 109 % of control. The T/C (endpoint: median survival time, dose: 100.0 mg/kg/injection, schedule: Q04DX003 (ip), vehicle: saline with Tween-80) was 106 % of control.

In the case of `CC(C)(C)OC(=O)C[Si](C)(C)C`, the T/C (endpoint: mean survival time, dose: 12.5 mg/kg/injection, schedule: Q01DX005 (ip), vehicle: Klucel (hydroxypropylcellulose) (HPC)) is reported as 90 % of control, the T/C (endpoint: mean survival time, dose: 25.0 mg/kg/injection, schedule: Q01DX005 (ip), vehicle: Klucel (hydroxypropylcellulose) (HPC)) is reported as 91 % of control and the T/C (endpoint: mean survival time, dose: 50.0 mg/kg/injection, schedule: Q01DX005 (ip), vehicle: Klucel (hydroxypropylcellulose) (HPC)) is reported as 93 % of control. For the same compound, the T/C (endpoint: mean survival time, dose: 100.0 mg/kg/injection, schedule: Q01DX005 (ip), vehicle: Klucel (hydroxypropylcellulose) (HPC)) was 90 % of control, the T/C (endpoint: mean survival time, dose: 200.0 mg/kg/injection, schedule: Q01DX005 (ip), vehicle: Klucel (hydroxypropylcellulose) (HPC)) was 88 % of control and the T/C (endpoint: mean survival time, dose: 400.0 mg/kg/injection, schedule: Q01DX005 (ip), vehicle: Klucel (hydroxypropylcellulose) (HPC)) was 90 % of control.

In the case of `CC(=O)OCC(OC(C)=O)C1OC(OCc2ccccc2)C(OC(C)=O)C(OC(C)=O)C1OC(C)=O` (stereo not given), the T/C [4] is reported as 95 % of control, the T/C [5] is reported as 86 % of control and the T/C [14] is reported as 88 % of control.

In the case of `COc1cccc2c1C(=O)c1c(O)c3c(c(O)c1C2=O)CC(O)(/C(C)=N/NC(=O)CCCCC(=O)N/N=C(\C)C1(O)Cc2c(O)c4c(c(O)c2C(OC2CC(N)C(O)C(C)O2)C1)C(=O)c1c(OC)cccc1C4=O)CC3OC1CC(N)C(O)C(C)O1` (stereo not given), the T/C (endpoint: median survival time, dose: 1.5 mg/kg/injection, schedule: Q01DX009 (ip), vehicle: water) is reported as 116 % of control and 123 % of control, the T/C (endpoint: median survival time, dose: 3.0 mg/kg/injection, schedule: Q01DX009 (ip), vehicle: water) is reported as 121 % of control and the T/C (endpoint: median survival time, dose: 6.25 mg/kg/injection, schedule: Q01DX009 (ip), vehicle: water) is reported as 153 % of control. For the same compound, the T/C (endpoint: median survival time, dose: 12.5 mg/kg/injection, schedule: Q01DX009 (ip), vehicle: water) was 108 % of control, the T/C (endpoint: median survival time, dose: 24.0 mg/kg/injection, schedule: Q01DX009 (ip), vehicle: water) was 97 % of control and the T/C (endpoint: median survival time, dose: 25.0 mg/kg/injection, schedule: Q01DX009 (ip), vehicle: water) was 87 % of control.

For `O=C1CC[C@H](NC(=O)OCc2ccccc2)C(=O)O1`, the T/C [7] was 88 % of control, the T/C [8] was 90 % of control and the T/C [13] was 88 % of control.

With `Cc1cccc2c1-c1c(C)cccc1CSC2` the T/C [7] was 95 % of control, the T/C (endpoint: mean survival time, dose: 100.0 mg/kg/injection, schedule: Q04DX003 (ip), vehicle: saline sonified) was 98 % of control and the T/C [8] was 97 % of control. The T/C (endpoint: mean survival time, dose: 200.0 mg/kg/injection, schedule: Q04DX003 (ip), vehicle: saline sonified) was 93 % of control, the T/C [13] was 101 % of control and the T/C (endpoint: mean survival time, dose: 400.0 mg/kg/injection, schedule: Q04DX003 (ip), vehicle: saline sonified) was 93 % of control.

In the case of `Cc1c([N+](=O)[O-])cc(C(C)(C)C)c(OS(C)(=O)=O)c1[N+](=O)[O-]`, the T/C [15] is reported as 105 % of control.

With `CCCCCCCCCCCCCCOc1ccccc1Cl` the T/C [15] was 101 % of control, the T/C (endpoint: mean survival time, dose: 200.0 mg/kg/injection, schedule: Q04DX002 (ip), vehicle: saline with Tween-80) was 101 % of control and the T/C (endpoint: mean survival time, dose: 400.0 mg/kg/injection, schedule: Q04DX002 (ip), vehicle: saline with Tween-80) was 90 % of control.

In the case of `Brc1ccc([Si](c2ccccc2)(c2ccccc2)c2ccc(Br)cc2)cc1`, the T/C [1] is reported as 102 % of control, the T/C [2] is reported as 108 % of control and the T/C [3] is reported as 106 % of control.

`c1ccc(N=NC2(c3ccccc3)CC(c3ccccc3)=NN(c3ccccc3)C2NNc2ccccc2)cc1` (stereo not given) was tested, and the T/C [4] was 96 % of control, the T/C [5] was 102 % of control and the T/C [14] was 96 % of control.

For `O=S(=O)(Cl)c1ccc2cc3ccccc3cc2c1`, the T/C (endpoint: mean survival time, dose: 50.0 mg/kg/injection, schedule: Q04DX003 (ip), vehicle: saline) was 96 % of control, the T/C [11] was 94 % of control and the T/C [9] was 96 % of control. For the same compound, the T/C [12] was 101 % of control and the T/C [10] was 102 % of control.

With `NC1=NCCCN1` the T/C (endpoint: mean survival time, dose: 3.0 mg/kg/injection, schedule: Q01DX009 (ip), vehicle: saline sonified) was 109 % of control, the T/C (endpoint: mean survival time, dose: 6.0 mg/kg/injection, schedule: Q01DX009 (ip), vehicle: saline sonified) was 111 % of control and the T/C (endpoint: mean survival time, dose: 12.0 mg/kg/injection, schedule: Q01DX009 (ip), vehicle: saline sonified) was 94 % of control.

In the case of `NC(=O)Cc1c(Cl)n(-c2ccccc2)c2ccccc12`, the T/C (endpoint: mean survival time, dose: 50.0 mg/kg/injection, schedule: Q04DX003 (ip), vehicle: Klucel (hydroxypropylcellulose) (HPC)) is reported as 95 % of control, the T/C (endpoint: mean survival time, dose: 100.0 mg/kg/injection, schedule: Q04DX003 (ip), vehicle: Klucel (hydroxypropylcellulose) (HPC)) is reported as 102 % of control and the T/C (endpoint: mean survival time, dose: 200.0 mg/kg/injection, schedule: Q04DX003 (ip), vehicle: Klucel (hydroxypropylcellulose) (HPC)) is reported as 95 % of control.

`CSC(=S)N(C)/N=C/c1cccc(C)n1` was tested, and the T/C [1] was 96 % of control, the T/C [2] was 102 % of control and the T/C [3] was 102 % of control.

With `Nn1cnnc1SCc1ccccc1` the T/C (endpoint: mean survival time, dose: 100.0 mg/kg/injection, schedule: Q04DX003 (ip), vehicle: other) was 100 % of control, the T/C (endpoint: mean survival time, dose: 200.0 mg/kg/injection, schedule: Q04DX003 (ip), vehicle: other) was 97 % of control and the T/C (endpoint: mean survival time, dose: 400.0 mg/kg/injection, schedule: Q04DX003 (ip), vehicle: other) was 105 % of control.
